Assay: Solubility enhancement of zotarolimus with select excipient solutions
Type: physicochemical
Conditions: Phosphate buffered saline; n = 3
Excerpt: Table 1 provides non-limiting examples of the solubility data for excipients that can be used in accordance with the disclosed subject matter:
As illustrated, in Table 1 the excipients provide for increased solubility for the cytostatic drug, zotarolimus, as compared to saline alone.

## CO[C@H]1C[C@@H]2CC[C@@H](C)[C@@](O)(O2)C(=O)C(=O)N2CCCC[C@H]2C(=O)O[C@H]([C@H](C)C[C@@H]2CC[C@H](n3cnnn3)[C@H](OC)C2)CC(=O)[C@H](C)/C=C(\C)[C@@H](O)[C@@H](OC)C(=O)[C@H](C)C[C@H](C)/C=C/C=C/C=C/1C [Zotarolimus, zotarolimus]
  Zotarolimus Solubility: 0.53 µg/mL

— patent publication US8480620B2, “Coatings with tunable solubility profile for drug-coated balloon” (Abbott Cardiovascular Systems Inc., priority 2009, dated 2013)
